In article PMC12138161, “Structure–activity analysis of imino‐pyrimidinone‐fused pyrrolidines aids the development of dual plasmepsin V and plasmepsin X inhibitors” (The Febs Journal, 2025) one finds IC50 and EC50 data, which are given here for six compounds.

Experiment [1] concerns PMV. The following applies: cited from earlier work.
Experiment [2] has as its system PMX. Particulars: cited from earlier work.
The test system of experiment [3] is PMIX. Particulars: cited from earlier work.
Experiment [4] relates to 3D7 strain of Plasmodium falciparum. The following applies: blood stage growth, read-out: Pf 3D7 EC50; cited from earlier work.
The target in experiment [5] is T1, recombinant Plasmodium vivax PMV (Plasmodium vivax, UniProt A5K302).
T1 construct: PvPMV (residues R35–R476) was prepared similarly; gp67 signal peptide (N); TEV protease cleavage site + FLAG tag (C); made in house; host or cells: Sf21 insect cells
T1 sequence (A5K302 35-476): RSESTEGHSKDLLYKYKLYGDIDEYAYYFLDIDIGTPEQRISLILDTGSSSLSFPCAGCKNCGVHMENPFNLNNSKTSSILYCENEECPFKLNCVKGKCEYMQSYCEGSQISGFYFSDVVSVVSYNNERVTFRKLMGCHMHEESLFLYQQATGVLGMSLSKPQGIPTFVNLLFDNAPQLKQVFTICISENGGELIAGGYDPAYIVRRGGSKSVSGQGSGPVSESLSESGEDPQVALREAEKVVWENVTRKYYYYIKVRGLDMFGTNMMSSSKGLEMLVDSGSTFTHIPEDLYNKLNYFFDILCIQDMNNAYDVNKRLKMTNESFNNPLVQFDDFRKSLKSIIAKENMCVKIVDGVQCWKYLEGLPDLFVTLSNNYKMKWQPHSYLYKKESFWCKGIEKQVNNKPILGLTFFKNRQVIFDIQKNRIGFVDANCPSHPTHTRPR
Description: Plasmepsin V fluorogenic substrate cleavage assay. The experiment is classed as biochemical. The following applies: recombinant P. vivax PMV; average of three independent experiments; read-out: PMV IC50 (SD). From the text:
To uncover nonpeptidomimetic drug‐like inhibitors of the aspartic protease PvPMV, we screened a library of 1298 compounds that were known to inhibit human aspartyl proteases. These compounds were selected by chemoinformatic structural diversity from a larger library of compounds that targeted human aspartyl proteases and has been used previously to identify hit compounds that inhibited P. falciparum growth. These hit compounds belonged to a single chemical class and were used to develop a lead compound WM382 that is a dual selective inhibitor of PMIX and PMX from P. falciparum and P. vivax. The screen utilized a FRET‐based assay with PvPMV and a fluorogenic EDANS‐DACBYL labeled peptide with the P. falciparum knob‐associated histidine‐rich protein (KAHRP) PEXEL motif amino acid sequence.
(§1) These fluorogenic assays follow protocols previously described. Compound potency was assessed with 10 point, threefold dilution series starting at 100 μM in duplicate per experiment and repeated in three independent experiments. Data were normalized to percent inhibition relative to 1% DMSO (high control) and either 1 μM WEHI‐600 for PMV and 1 μM WM382 for PMIX/PMX (low controls). IC50 values (relative inflection of dose–response curve) were calculated using a nonlinear regression four‐parameter fit analysis in DOTMATICS 5.3 (Dotmatics, Boston, MA, USA) and SPOTFIRE 7.11.1 (Goteborg, Sweden) software. The equation used was sigmoidal dose–response (variable slope), Y = bottom + (top − bottom)/(1 + 10 ((logIC50 − X) × Hill Slope)). Reported IC50 values were calculated based on the averages of three independent dataset. Assay robustness and data quality was assessed by Z′ > 0.5 (Z′ = 1 − (3 × (SD high + SD low)/(mean high − mean low))) and activity reproducibility of reference compound. WEHI‐600 (PMV) or WM382 (PMIX/PMX) were included as reference compounds in every experiment to monitor the assay performance. Any drift in activity greater than threefold from the average acceptable range and the experiment was rejected and repeated.

The target of experiment [6] is T2, Plasmodium falciparum PMIX (Plasmodium falciparum, UniProt Q8ILG2).
T2 sequence (Q8ILG2 1-627): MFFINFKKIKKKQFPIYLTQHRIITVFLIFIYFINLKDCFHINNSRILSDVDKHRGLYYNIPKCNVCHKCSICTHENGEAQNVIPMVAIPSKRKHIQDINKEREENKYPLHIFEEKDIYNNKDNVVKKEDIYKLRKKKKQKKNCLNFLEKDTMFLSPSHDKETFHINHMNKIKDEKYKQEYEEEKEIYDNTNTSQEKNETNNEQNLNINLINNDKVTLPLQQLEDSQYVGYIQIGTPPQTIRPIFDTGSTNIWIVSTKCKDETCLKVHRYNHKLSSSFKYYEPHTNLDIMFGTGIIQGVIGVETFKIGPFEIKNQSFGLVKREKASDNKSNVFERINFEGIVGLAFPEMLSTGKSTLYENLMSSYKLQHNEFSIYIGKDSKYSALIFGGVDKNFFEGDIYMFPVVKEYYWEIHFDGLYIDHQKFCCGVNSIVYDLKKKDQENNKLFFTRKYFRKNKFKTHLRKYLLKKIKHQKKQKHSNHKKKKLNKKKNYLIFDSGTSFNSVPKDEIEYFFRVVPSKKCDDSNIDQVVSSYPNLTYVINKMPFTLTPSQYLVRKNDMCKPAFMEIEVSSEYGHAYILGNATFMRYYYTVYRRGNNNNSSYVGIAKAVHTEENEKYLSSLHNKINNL
Description: Plasmepsin IX fluorogenic substrate cleavage assay. Particulars: P. falciparum PMIX; average of three independent experiments; read-out: PMIX IC50 (SD). Type of experiment: biochemical. The protocol: as §1

Experiment [7] deals with P. falciparum 3D7 asexual parasites. Description: P. falciparum growth inhibition assay (LDH activity, 72 h). The experiment is classed as cell-based, Plasmodium falciparum. The following applies: Plasmodium falciparum; 3D7 asexual parasites, 72 h exposure, LDH activity; three independent experiments; read-out: Pf 3D7 EC50 (SD). The protocol:
The ability of compounds to block growth of blood stage P. falciparum parasites was determined using a growth inhibition assay (GIA) as described. Compound potency was assessed with 10 point, threefold dilution series starting at 10 μM in duplicate per experiment and repeated in three independent experiments. Data were normalized to percent viability relative to 0.1% DMSO (high growth control) and 2.5 μM chloroquine (low growth control). EC50 values (relative inflection of dose–response curve) were calculated using a nonlinear regression four‐parameter fit analysis in DOTMATICS 5.3 and SPOTFIRE 7.11.1 software. The equation used was sigmoidal dose–response (variable slope), Y = bottom + (top − bottom)/(1 + 10 ((logEC50 − X) × Hill Slope)). Reported EC50 values were calculated on the average of three independent dataset. Assay robustness and data quality was assessed by Z′ > 0.5 (Z′ = 1 − (3 × (SD high + SD low)/(mean high − mean low))) and activity reproducibility of reference compound WM382, which was included in every experiment. Any drift in WM382 activity greater than threefold from the average acceptable range and the experiment was rejected and repeated.

Experiment [8] concerns the target P. falciparum PMX (Plasmodium falciparum, UniProt Q8IAS0). Description: Plasmepsin X fluorogenic substrate cleavage assay. Type of experiment: biochemical. The following applies: P. falciparum PMX; average of three independent experiments; read-out: PMX IC50 (SD). As to the method: as §1
Setting [9] is: stated in text with reference to Fig. 1.

Like-named read-outs stand apart in the source and are kept apart here.

P. falciparum PMX, sequence (Q8IAS0 222-573): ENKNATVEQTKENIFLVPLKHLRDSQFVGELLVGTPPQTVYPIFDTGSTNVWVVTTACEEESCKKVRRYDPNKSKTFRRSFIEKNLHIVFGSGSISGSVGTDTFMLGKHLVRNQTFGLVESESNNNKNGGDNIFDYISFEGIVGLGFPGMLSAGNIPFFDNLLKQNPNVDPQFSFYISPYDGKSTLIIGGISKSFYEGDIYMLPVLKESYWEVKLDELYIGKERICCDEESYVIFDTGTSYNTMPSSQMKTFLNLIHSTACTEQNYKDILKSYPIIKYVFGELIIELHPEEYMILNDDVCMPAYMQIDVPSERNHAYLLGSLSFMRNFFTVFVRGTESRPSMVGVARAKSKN

Turning to `CC(C)C[C@H](NC(=O)[C@@H](NC(=O)[C@H](CCONC(=N)N)NC(=O)OCc1ccccc1)C(C)C)[C@@H](O)CC(=O)NCCc1ccccc1` [WEHI-842 (1)], the IC50 is 19 nM in experiment [1], under 20 nM in experiment [1] (setting [9]), 1700 nM in experiment [2] and over 50000 nM in experiment [3]. For the same compound, the EC50 in experiment [4] was 430 nM.
Turning to `CCC1(CC)CC(=O)N([C@@H]2CCOc3ccc(C(=O)N[C@H]4CC(C)(C)Oc5ccccc54)cc32)C(=N)N1` [WM382 (5)], the IC50 in experiment [1] was over 1000 nM; in experiment [2] it was 0.04 nM; in experiment [3], 0.4 nM. In experiment [4], the EC50 is 0.6 nM.
With `Cc1c(NC(=O)c2cccc(C#N)c2)cccc1[C@]1(C)CC(=O)N([C@H]2CCO[C@@H](C)C2)C(=N)N1` [UCB7362 (4)], the IC50 was 7 nM in experiment [2] and 142 nM in experiment [3]. In addition, the EC50 in experiment [4] was 10 nM.
As to `CN1C(=N)NC2(c3cc(F)ccc3F)CN(c3ncccc3-c3ccc(Cl)c(Cl)c3)CC2C1=O` (stereo not shown) [Compound 19], the IC50 in experiment [5] was over 3700 nM; in experiment [6], 434 nM; in experiment [8], 187 nM. The EC50 in experiment [7] is over 10000 nM.
Consider `C[C@@H](NC[C@@H](O)[C@H](Cc1ccccc1)NC(=O)c1ccc(C(=O)N2CCN(C)CC2)cc1)c1ccccc1` [49c (3)], for which the IC50 in experiment [1] is over 1000 nM; in experiment [2], 1.4 nM; in experiment [3], 650 nM. Further, the EC50 in experiment [4] was 0.6 nM.
As to `CC(C)C[C@H](NC(=O)[C@@H](NC(=O)[C@H](CCONC(=N)N)NC(=O)OCc1ccccc1)C1CCCCC1)[C@@H](O)CC(=O)NCCc1ccccc1` [WEHI-601 (2)], the concentration for half-maximal inhibition (IC50) in experiment [1] was 5 nM; in experiment [1] (setting [9]), under 20 nM; in experiment [2], 330 nM; in experiment [3] it was over 50000 nM. In addition, in experiment [4], the concentration giving a half-maximal response (EC50) was 90 nM.

What is called IC50 is the concentration that gives 50% inhibition. In general, EC50 refers to the concentration that produces a half-maximal response.
